Results: article PMC9038752, “Molecular mechanisms of bifunctional vitamin D receptor agonist-histone deacetylase inhibitor hybrid molecules in triple-negative breast cancer” (Scientific Reports, 2022)
In brackets after ≈: the same amount, converted by molar mass. Entries after “also recorded” stand apart in the source; their conditions may differ.

Tests used:
[1] = system: 4T1 mouse model of triple negative breast cancer; design: method as in PMID 28847749; settings: aggressive 4T1 mouse model of TNBC; cited from earlier work
VDR = molecular target: T1, VDR (Mus musculus, UniProt P48281); test: Cyp24a1 induction assay for VDR agonism in 4T1 cells; type: cell-based; settings: 24 h
T1 construct: endogenous in cells; host or cells: 4TO7 and 4T1 mouse triple-negative breast cancer cells
T1 sequence (P48281 1-422): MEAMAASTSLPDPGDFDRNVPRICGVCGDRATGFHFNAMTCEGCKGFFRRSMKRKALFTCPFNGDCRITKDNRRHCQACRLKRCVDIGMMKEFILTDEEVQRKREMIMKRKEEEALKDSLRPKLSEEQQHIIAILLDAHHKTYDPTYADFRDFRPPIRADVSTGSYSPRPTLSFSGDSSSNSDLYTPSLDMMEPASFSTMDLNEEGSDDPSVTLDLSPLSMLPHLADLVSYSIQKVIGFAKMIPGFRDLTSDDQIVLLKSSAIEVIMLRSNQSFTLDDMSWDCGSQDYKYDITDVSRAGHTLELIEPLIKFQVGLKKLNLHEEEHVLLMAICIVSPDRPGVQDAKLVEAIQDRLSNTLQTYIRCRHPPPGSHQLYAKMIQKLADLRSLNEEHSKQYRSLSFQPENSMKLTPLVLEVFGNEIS
Procedure: (§1) Figure 5 (a) and (b) Analysis of induced Cyp24a1 expression in 4TO7 (a) and 4T1 (b) cells to test for VDR agonism of DK-406 and heterocyclic analogues after 24 h treatment. c-e. Analysis of the cytotoxicity of hybrid compounds after 24 h using the MTGlo assay (see Methods for details) in 4TO7 (c), 4T1 (d) and MDA-MB-231 (e) cells. […] Each condition was compared to control. *: p ≤ 0.05, **: p ≤ 0.01, ***: p ≤ 0.001, ****: p ≤ 0.0001, ns: not significant.
As previously, we were interested in studying the efficacy of hybrids in models of TNBC. We used the 4T1 cell line[20] as well as the related TNBC cell line 4TO7, which was derived from the same mouse tumor as 4T1 cells in Balb/c mice[33]. 4TO7 cells readily form primary tumors. […] These lines also have the advantage that anti-tumor efficacy studies can be performed in Balb/c mice, which have intact immune systems. Compounds were initially tested for VDR agonist activity in 4TO7 cells by screening induction of the VDR target gene Cyp24a1. […] The pyridyl hybrids were then tested for efficacy in vitro in 4TO7 and 4T1 cells using an MT-Glo assay in which only viable cells can convert a precursor into a substrate for a luciferase bioluminescence assay (Fig. 5c,d; see Methods for details).
Mouse 4T07 cells and 4T01 cells were cultured in DMEM (319–005-CL; WISENT Inc.) supplemented with 10% heat-inactivated FBS. […]

[2] = Aqueous solubility after sonication; type: physicochemical; settings: after sonication for 30 min
From the text: The synthesis of the B-ring series mirrored that of the A-ring series producing B-ring hybrids AM-191 (n = 1, 27a), AM-192 (n = 3, 27b), and AM-193 (n = 5, 27c) in 9 steps (Fig. 3).

4T1 cells = test: RealTime-Glo MT cell viability assay, 4T1; type: cell-based, mouse; settings: 24 h
Procedure: as §1
(§2) As previously, we were interested in studying the efficacy of hybrids in models of TNBC. We used the 4T1 cell line[20] as well as the related TNBC cell line 4TO7, which was derived from the same mouse tumor as 4T1 cells in Balb/c mice[33]. 4TO7 cells readily form primary tumors. […] These lines also have the advantage that anti-tumor efficacy studies can be performed in Balb/c mice, which have intact immune systems. Compounds were initially tested for VDR agonist activity in 4TO7 cells by screening induction of the VDR target gene Cyp24a1. […]
(§3) The assay was performed to assess cell viability in order to determine analogue cytotoxicity. […] Luminescence was measured using a 1420 Luminescence Counter Victor Light (PerkinElmer), normalized to control, and plotted. […]

4TO7 cells = test: RealTime-Glo MT cell viability assay, 4TO7; type: cell-based, mouse; settings: 24 h
Procedure: as §1, §2, §3

MB-MDA231 cells = test: RealTime-Glo MT cell viability assay, MB-MDA231; type: cell-based; settings: human TNBC cell line MB-MDA231, 24 h
Procedure: as §1, §2, §3

Row | higher solubility in water compared to DK-367 [2] [%] | solubility at 30 min ([2]; water) [µg/mL] | Structure (SMILES) | tumor growth and metastasis [1] | VDR agonist activity (Cyp24a1 induction) (VDR) | cytotoxicity (MT-Glo viability) (4T1 cells) | potency in MT-Glo assay relative to DK-406 (4T1 cells) | cytotoxicity (MT-Glo viability) (4TO7 cells) | potency in MT-Glo assay relative to DK-406 (4TO7 cells) | cytotoxicity (MT-Glo viability) (MB-MDA231 cells)
1 | – | – | CCC(CC)(c1ccc(C(=O)NCCCCCC(=O)NO)cc1)c1ccc(OCC(O)C(C)(C)C)c(C)c1 (stereo not shown) [DK-406] | reduced tumor growth and metastasis | full agonists | – | – | – | – | –
2 | 27 | 2.43 (≈ 4.85 µM) | CCC(CC)(c1ccc(OCCCCCC(=O)NO)cc1)c1ccc(OCC(O)C(C)(C)C)c(C)n1 (stereo not shown) [AM-193] | – | full agonists; also recorded: potency of AM-193 was confirmed | most potent compound tested | at least tenfold | most potent compound tested | at least tenfold | potency of AM-193 as a cytotoxic agent was also confirmed
